Results: patent US10253086B2, “CD20 therapies, CD22 therapies, and combination therapies with a CD19 chimeric antigen receptor (CAR)-expressing cell” (Novartis AG, priority 2015, dated 2019)

What was measured:
[1] = system: CAR-expressing, transduced T cells; assay: CART co-culture with NALM6 cells in the presence of RAD001; format: cell-based; details: low doses of RAD001 (nM); 4 days of co-culture with NALM6
Experimental: CARTs were co-cultured with NALM6 (Nalm-6) cells in the presence of different concentrations of RAD001 (nM). The number of CAR-positive CD3-positive T cells (black) and total T cells (white) was assessed after 4 days of co-culture.

CAR T cells [2] = assay: In vivo proliferation of humanized CD19 CART cells with and without RAD001 dosing; details: RAD001 0.003 mg/kg daily with huCTL019; versus normal level of huCAR19 proliferation
Experimental: FIGS. 62A and 62B show in vivo proliferation of humanized CD19 CART cells with and without RAD001 dosing. […] Circles denote PBS; squares denote huCTL019; triangles denote huCTL019 with 3 mg/kg RAD001; inverted triangles denote huCTL019 with 0.3 mg/kg RAD001; diamonds denote huCTL019 with 0.03 mg/kg RAD001; and circles denote huCTL019 with 0.003 mg/kg RAD001.

NALM6 (Nalm-6) = assay: 4 day co-culture proliferation of huCART19 with RAD001; format: cell-based, human
Experimental: To evaluate the functionality of CARTs, the T cells are thawed and counted, and viability is assessed by Cellometer. The number of CAR-positive cells in each culture is normalized using non-transduced T cells (UTD). The impact of RAD001 on CARTs was tested in titrations with RAD001, starting at 50 nM. The target cell line used in all co-culture experiments is NALM6 (Nalm-6), a human pre-B cell acute lymphoblastic leukemia (ALL) cell line expressing CD19 and transduced to express luciferase.
For measuring the proliferation of CARTs, T cells are cultured with target cells at a ratio of 1:1. The assay is run for 4 days, when cells are stained for CD3, CD4, CD8 and CAR expression. The number of T cells is assessed by flow cytometry using counting beads as reference.
The proliferative capacity of CART cells was tested in a 4 day co-culture assay.

NALM6-luc tumors = assay: RAD001 alone on growth of NALM6-luc tumors; format: in vivo, NSG mice; details: daily oral dosing of RAD001 alone
Experimental: NALM6-luc cells: The NALM6 human acute lymphoblastic leukemia (ALL) cell line was developed from the peripheral blood of a patient with relapsed ALL. The cells were then tagged with firefly luciferase. These suspension cells grow in RPMI supplemented with 10% heat inactivated fetal bovine serum.
Mice: 6 week old NSG (NOD.Cg-PrkdcscidIl2rgtm1Wjl/SzJ) mice were received from the Jackson Laboratory (stock number 005557).
Tumor implantation: NALM6-luc cells were grown and expanded in vitro in RPMI supplemented with 10% heat inactivated fetal bovine serum. The cells were then transferred to a 15 ml conical tube and washed twice with cold sterile PBS. NALM6-luc cells were then counted and resuspended at a concentration of 10×10^6 cells per milliliter of PBS. The cells were placed on ice and immediately (within one hour) implanted in the mice. NALM6-luc cells were injected intravenously via the tail vein in a 100 μl volume, for a total of 1×10^6 cells per mouse.
(§1) RAD001 dosing: A concentrated micro-emulsion of 50 mg equal to 1 mg RAD001 was formulated and then resuspended in D5W (dextrose 5% in water) at the time of dosing. Mice were orally dosed daily (via oral gavage) with 200 μl of the desired doses of RAD001.
(§2) The expansion and pharmacokinetics of RAD001 was tested in NSG mice with NALM6-luc tumors.

[3] = RAD001 PK analysis in tumor bearing mice; format: in vivo, NSG mice
Experimental: as §1
PK analysis: Mice were dosed daily with RAD001 starting 7 days post tumor implantation. Dosing groups were as follows: 0.3 mg/kg, 1 mg/kg, 3 mg/kg, and 10 mg/kg. Mice were bled on days 0 and 14 following the first and last dose of RAD001, at the following time points for PK analysis: 15 minutes, 30 minutes, 1 hour, 2 hours, 4 hours, 8 hours, 12 hours, and 24 hours.
as §2

CAR T cells [4] = assay: huCAR19 CAR T cell expansion in vivo with RAD001; set-up: species or system NSG mice; details: lowest doses of RAD001, daily oral
Experimental: CAR T cell dosing: Mice were administered 5×10^6 CAR T cells 7 days after tumor implantation. Cells were partially thawed in a 37 degree Celsius water bath and then completely thawed by the addition of 1 ml of cold sterile PBS to the tube containing the cells. The thawed cells were transferred to a 15 ml falcon tube and adjusted to a final volume of 10 mls with PBS. The cells were washed twice at 1000 rpm for 10 minutes each time and then counted on a hemocytometer. T cells were then resuspended at a concentration of 50×10^6 CAR T cells per ml of cold PBS and kept on ice until the mice were dosed. The mice were injected intravenously via the tail vein with 100 μl of the CAR T cells for a dose of 5×10^6 CAR T cells per mouse. Eight mice per group were treated either with 100 μl of PBS alone (PBS), or humanized CD19 CAR T cells.
as §1
Based on these doses, huCAR19 CAR T cells were dosed with and without RAD001 to determine the proliferative ability of these cells. The highest dose used was 3 mg/kg based on the levels of RAD001 in the blood 24 hours after dosing. […] Mice were monitored via FACS for T cell expansion. […]

r/r B-ALL = details: cited from earlier work

| Compound | proliferation of CAR-expressing, transduced T cells [1] | CAR T cell proliferation in vivo (CAR T cells [2]) | proliferation of huCART19 cells (NALM6 (Nalm-6); 0.0032 and 0.016 nM RAD001) | RAD001 concentration at which huCART19 cells expanded (NALM6 (Nalm-6); lesser extent at higher concentrations) | growth of NALM6-luc tumors (NALM6-luc tumors) | concentration of RAD001 in blood ([3]; 24 hours after the final dose) | concentration at 24 h ([3]; NSG, mouse, whole blood, oral, 24 hours after dosing, 0.3 mg/kg, day 0 and day 14, read-out: RAD001 concentrations in the blood) [nM] | stability in the blood of tumor bearing mice ([3]; mouse, in vivo) | proliferation of the CAR T cells in vivo (CAR T cells [4]) | share of relapses that are CD19-negative (r/r B-ALL) |
| --- | --- | --- | --- | --- | --- | --- | --- | --- | --- | --- |
| CO[C@H]1C[C@@H]2CC[C@@H](C)[C@@](O)(O2)C(=O)C(=O)N2CCCC[C@H]2C(=O)O[C@H]([C@H](C)C[C@@H]2CC[C@@H](OCCO)[C@H](OC)C2)CC(=O)[C@H](C)/C=C(\C)[C@@H](O)[C@@H](OC)C(=O)[C@H](C)C[C@H](C)/C=C/C=C/C=C/1C [RAD001, everolimus] | enhanced | enhancement in CAR T cell proliferation | higher than observed without the addition of RAD001 | less than 0.016 nM | did not have an impact on the growth of NALM6-luc tumors | above 10 nM | > 10 | fairly stable in the blood | enhanced proliferation of the CAR T cells | – |
| blinatumomab: bi-specific anti-CD19/CD3 antibody combining an anti-CD19 scFv with an anti-CD3 scFv | – | – | – | – | – | – | – | – | – | about 30% |
